This is an account of results in ChEMBL document CHEMBL3244322, “5-O-Alkylated derivatives of 5-hydroxy-2'-deoxyuridine as potential antiviral agents. Anti-herpes activity of 5-propynyloxy-2'-deoxyuridine” (J Med Chem, 1978).

The test system of this assay is Vaccinia virus. The assay is described as follows: Antiviral activity against Vaccinia virus infected in primary rabbit kidney cells assessed as inhibition of virus-induced cytopathogenicity. The format is functional. Particulars: Orthopoxvirus vaccinia. (Cytopathic effects are the visible damage that an infection or toxin causes in cultured cells.)

Values after ≈ are worked out from the molar mass of the structure shown.

As to `O=c1[nH]c(=O)n([C@H]2C[C@H](O)[C@@H](CO)O2)cc1O`, the MIC came to 14 µM (≈ 3.42 µg/mL).

As for `C#CCOc1cn([C@H]2C[C@H](O)[C@@H](CO)O2)c(=O)[nH]c1=O`, the MIC is 35 µM (≈ 9.88 µg/mL). For the compound `C=CCOc1cn([C@@H]2O[C@H](CO)[C@@H](O)[C@H]2O)c(=O)[nH]c1=O`, the MIC was > 600 µM. Turning to `C=CCOc1cn([C@H]2C[C@H](O)[C@@H](CO)O2)c(=O)[nH]c1=O`, the MIC stood at 70 µM (≈ 19.9 µg/mL). Under `O=c1[nH]c(=O)n([C@@H]2O[C@H](CO)[C@@H](O)[C@H]2O)cc1OCc1ccccc1` stands > 600 µM; under `O=c1[nH]c(=O)n([C@H]2C[C@H](O)[C@@H](CO)O2)cc1OCc1ccccc1`, > 300 µM; under `O=c1[nH]c(=O)n([C@@H]2O[C@H](CO)[C@@H](O)[C@H]2O)cc1OCc1ccc([N+](=O)[O-])cc1`, > 600 µM.

For the compound `O=c1[nH]c(=O)n([C@H]2C[C@H](O)[C@@H](CO)O2)cc1OCc1ccc([N+](=O)[O-])cc1`, the MIC is > 260 µM. `Cc1ccc(COc2cn([C@@H]3O[C@H](CO)[C@@H](O)[C@H]3O)c(=O)[nH]c2=O)cc1`: the MIC was > 600 µM. In the case of `NC(=O)COc1cn([C@@H]2O[C@H](CO)[C@@H](O)[C@H]2O)c(=O)[nH]c1=O` it was > 600 µM; in that of `NC(=O)COc1cn([C@H]2C[C@H](O)[C@@H](CO)O2)c(=O)[nH]c1=O`, 130 µM (≈ 39.2 µg/mL); in that of `O=C(O)COc1cn([C@H]2C[C@H](O)[C@@H](CO)O2)c(=O)[nH]c1=O`, > 600 µM.

Take `O=c1[nH]c(=O)n([C@H]2C[C@H](O)[C@@H](CO)O2)cc1I` [IDOXURIDINE]: the MIC turned out to be 1.4 µM (≈ 0.496 µg/mL).

For the compound `Nc1ncnc2c1ncn2[C@@H]1O[C@H](CO)[C@@H](O)[C@@H]1O` [VIDARABINE], the MIC came out at 1.4 µM (≈ 0.374 µg/mL).
